Laboratory results from patent US20080076183A1, “Polysaccharide-peptide conjugates for use as thrombin substrates” (Dade Behring Marburg GmbH, priority 2006, published 2008).
Non-standard residues stand in square brackets, D forms with d. Residues, ends and D or L forms follow the SMILES beside them. *: point of attachment. pNA = O=[N+]([O-])c1ccc(N*)cc1; βAla = NCCC(=O)O

Key:
thrombin [1] = target: T1, thrombin (Homo sapiens, UniProt P00734); assay: Thrombin generation test / determination of the endogenous thrombin potential in defibrinated platelet-poor plasma; assay type: biochemical; conditions: for reaction kinetics / substrate consumption in a thrombin generation test: compared with H-β-Ala-Gly-Arg-pNA and dextran-β-Ala-Gly-Arg-pNA; for course of substrate conversion curve after termination of thrombin formation and inhibition: extinction at 405 nm
Description: The thrombin generation was started by addition of 30 μl of Innovin® (reagent comprising recombinant human tissue factor and a mixture of synthetic phospholipids; Dade Behring Marburg GmbH, Germany) and 15 μl of CaCl2 [250 mM]. Measurement was started simultaneously. The change in extinction was monitored for at least 20 minutes in a Behring coagulation system BCS® system (Dade Behring Marburg GmbH, Marburg, Germany) at a wavelength of λ=405 nm (see FIG. 2).
For comparison purposes, the determination of the endogenous thrombin potential was carried out in parallel using the uncoupled substrate H-β-Ala-Gly-Arg-pNA. The substrate solution used for this contained 1 mM H-β-Ala-Gly-Arg-pNA (see FIG. 1).

thrombin [2] = target: T1, thrombin; assay: Kinetic properties of thrombin substrates (Km, Vmax, Kcat, Kcat/Km)

Compound	reaction kinetics / substrate consumption in a thrombin generation test (thrombin [1])	course of substrate conversion curve after termination of thrombin formation and inhibition (thrombin [1]; plasma sample)	further results
Dextran-D-CHG-Ala-Arg-pNA	substrate consumption rapidly occurs		
Dextran-β-Ala-Gly-Arg-pNA		reaches a plateau phase	
N=C(N)NCCC[C@H](NC(=O)CNC(=O)CCN)C(=O)Nc1ccc([N+](=O)[O-])cc1 [H-β-Ala-Gly-Arg-pNA 2AcOH] (H-[βAla]-Gly-Arg-pNA)		changes to a uniform, steady and linear increase, instead of reaching a plateau phase	cleavage by α2-macroglobulin-bound thrombin (thrombin [1]; plasma sample): cleavage of the small molecular weight peptide substrate by α2-macroglobulin-bound thrombin; Km (thrombin [2]; Michaelis constant, substrate affinity to thrombin): 2200 µM; Vmax (thrombin [2]; maximum reaction rate): 16 U; Kcat (thrombin [2]; turnover number): 17.4 s⁻¹
Dextran-D-CHG-Gly-Arg-pNA	substrate consumption rapidly occurs		
